Measurements as given in ChEMBL document CHEMBL5042477, “Potent Cyclic Peptide Inhibitors of FXIIa Discovered by mRNA Display with Genetic Code Reprogramming” (J Med Chem, 2021).
pIC50: −log10 of the molar value. Where a SMILES comes first, the peptide text is derived from it. Bridges are numbered along the chain shown (N, C = ends). [ ]: non-standard residue; d: D form. Phe(3-CF3) = N[C@@H](Cc1cccc(C(F)(F)F)c1)C(=O)O; Phe(4-CF3) = N[C@@H](Cc1ccc(C(F)(F)F)cc1)C(=O)O; Phe(2-CF3) = N[C@@H](Cc1ccccc1C(F)(F)F)C(=O)O; Phe(3-OMe) = COc1cccc(C[C@H](N)C(=O)O)c1; Phe(2-OMe) = COc1ccccc1C[C@H](N)C(=O)O; Phe(2-F) = N[C@@H](Cc1ccccc1F)C(=O)O; 2Pal = N[C@@H](Cc1ccccn1)C(=O)O; 4Pal = N[C@@H](Cc1ccncc1)C(=O)O; Cha = N[C@@H](CC1CCCCC1)C(=O)O; Agb = N=C(N)NCC[C@H](N)C(=O)O; Orn = NCCC[C@H](N)C(=O)O

Target: T1, Coagulation factor XII (Homo sapiens, UniProt P00748)
T1 sequence (P00748 whole entry): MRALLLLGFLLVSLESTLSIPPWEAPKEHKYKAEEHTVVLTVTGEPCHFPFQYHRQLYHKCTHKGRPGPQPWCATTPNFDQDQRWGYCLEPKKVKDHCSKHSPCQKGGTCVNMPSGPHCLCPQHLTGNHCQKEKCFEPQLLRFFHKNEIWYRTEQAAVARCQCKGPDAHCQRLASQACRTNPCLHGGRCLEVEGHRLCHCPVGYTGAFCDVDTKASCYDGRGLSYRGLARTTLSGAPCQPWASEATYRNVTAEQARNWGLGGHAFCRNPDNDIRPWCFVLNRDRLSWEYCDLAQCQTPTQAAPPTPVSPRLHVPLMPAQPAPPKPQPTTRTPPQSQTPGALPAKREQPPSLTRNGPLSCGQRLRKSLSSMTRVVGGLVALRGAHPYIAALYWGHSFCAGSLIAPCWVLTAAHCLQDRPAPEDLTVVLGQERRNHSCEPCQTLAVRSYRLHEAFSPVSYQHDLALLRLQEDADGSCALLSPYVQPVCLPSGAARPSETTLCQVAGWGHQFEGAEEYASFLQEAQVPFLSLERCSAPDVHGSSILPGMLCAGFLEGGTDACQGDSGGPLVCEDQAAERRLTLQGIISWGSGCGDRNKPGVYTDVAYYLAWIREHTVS
Experiment: Inhibition of human factor 12a using H-D-Pro-Phe-Arg-p-nitroanilide as chromogenic substrate assessed as liberation of p-nitroaniline measured every 5 mins for 60 min by multimode plate reader analysis

Compound: COc1cccc(C[C@@H]2NC(=O)[C@H](CCCNC(=N)N)NC(=O)[C@H](CC(C)C)NC(=O)[C@H](Cc3ccc(O)cc3)NC(=O)CSC[C@@H](C(N)=O)NC(=O)CNC(=O)CNC(=O)[C@H](CCCNC(=N)N)NC(=O)[C@H](CC(=O)O)NC(=O)[C@H](CCCCN)NC(=O)[C@@H]3CCCN3C(=O)[C@H](CCCNC(=N)N)NC2=O)c1 ({CH2CO}-YLR[Phe(3-OMe)]RPKDRGGC-NH2; thioether N-12)
- pIC50: 6.92

Compound: CC(C)C[C@@H]1NC(=O)[C@H](CC2CCCCC2)NC(=O)CSC[C@@H](C(N)=O)NC(=O)CNC(=O)CNC(=O)[C@H](CCCNC(=N)N)NC(=O)[C@H](CC(=O)O)NC(=O)[C@H](CCCCN)NC(=O)[C@@H]2CCCN2C(=O)[C@H](CCCNC(=N)N)NC(=O)[C@H](Cc2ccccc2)NC(=O)[C@H](CCCNC(=N)N)NC1=O ({CH2CO}-[Cha]LRFRPKDRGGC-NH2; thioether N-12)
- pIC50: 3.85

Compound: CC(C)C[C@@H]1NC(=O)[C@H](C)NC(=O)CSC[C@@H](C(N)=O)NC(=O)CNC(=O)CNC(=O)[C@H](CCC(N)=O)NC(=O)[C@H](CC(N)=O)NC(=O)[C@H]([C@@H](C)O)NC(=O)[C@@H]2CCCN2C(=O)[C@H](CCCCN)NC(=O)[C@H](CC(C)C)NC(=O)[C@H](CCCNC(=N)N)NC1=O ({CH2CO}-ALRLKPTNQGGC-NH2; thioether N-12)
- pIC50: 3.54

Compound: CC(C)C[C@@H]1NC(=O)[C@H](Cc2ccncc2)NC(=O)CSC[C@@H](C(N)=O)NC(=O)CNC(=O)CNC(=O)[C@H](CCCNC(=N)N)NC(=O)[C@H](CC(=O)O)NC(=O)[C@H](CCCCN)NC(=O)[C@@H]2CCCN2C(=O)[C@H](CCCNC(=N)N)NC(=O)[C@H](Cc2ccccc2)NC(=O)[C@H](CCCNC(=N)N)NC1=O ({CH2CO}-[4Pal]LRFRPKDRGGC-NH2; thioether N-12)
- pIC50: 4.92

Compound: CC(C)C[C@@H]1NC(=O)[C@H](Cc2ccc(O)cc2)NC(=O)CSC[C@@H](C(N)=O)NC(=O)CNC(=O)CNC(=O)[C@H](CCCNC(=N)N)NC(=O)[C@H](CC(=O)O)NC(=O)[C@H](CCCCN)NC(=O)[C@@H]2CCCN2C(=O)[C@H](CCCNC(=N)N)NC(=O)[C@H](Cc2ccccc2)NC(=O)[C@H](CCCN)NC1=O ({CH2CO}-YL[Orn]FRPKDRGGC-NH2; thioether N-12)
- pIC50: 4.15

Compound: CC(C)C[C@@H]1NC(=O)[C@H](Cc2ccc(O)cc2)NC(=O)CSC[C@@H](C(N)=O)NC(=O)CNC(=O)CNC(=O)[C@H](CCCNC(=N)N)NC(=O)[C@H](CC(=O)O)NC(=O)[C@H](CCCCN)NC(=O)[C@@H]2CCCN2C(=O)[C@H](CCCNC(=N)N)NC(=O)[C@H](C)NC(=O)[C@H](CCCNC(=N)N)NC1=O ({CH2CO}-YLRARPKDRGGC-NH2; thioether N-12)
- pIC50: 5.29

Compound: CC(C)C[C@@H]1NC(=O)[C@H](Cc2ccccc2F)NC(=O)CSC[C@@H](C(N)=O)NC(=O)CNC(=O)CNC(=O)[C@H](CCCNC(=N)N)NC(=O)[C@H](CC(=O)O)NC(=O)[C@H](CCCCN)NC(=O)[C@@H]2CCCN2C(=O)[C@H](CCCNC(=N)N)NC(=O)[C@H](Cc2ccccc2)NC(=O)[C@H](CCCNC(=N)N)NC1=O ({CH2CO}-[Phe(2-F)]LRFRPKDRGGC-NH2; thioether N-12)
- pIC50: 6.46

Compound: COc1ccccc1C[C@@H]1NC(=O)[C@H](CCCNC(=N)N)NC(=O)[C@H](CC(C)C)NC(=O)[C@H](Cc2ccc(O)cc2)NC(=O)CSC[C@@H](C(N)=O)NC(=O)CNC(=O)CNC(=O)[C@H](CCCNC(=N)N)NC(=O)[C@H](CC(=O)O)NC(=O)[C@H](CCCCN)NC(=O)[C@@H]2CCCN2C(=O)[C@H](CCCNC(=N)N)NC1=O ({CH2CO}-YLR[Phe(2-OMe)]RPKDRGGC-NH2; thioether N-12)
- pIC50: 7.22

Compound: CC(C)C[C@@H]1NC(=O)[C@H](Cc2ccccn2)NC(=O)CSC[C@@H](C(N)=O)NC(=O)CNC(=O)CNC(=O)[C@H](CCCNC(=N)N)NC(=O)[C@H](CC(=O)O)NC(=O)[C@H](CCCCN)NC(=O)[C@@H]2CCCN2C(=O)[C@H](CCCNC(=N)N)NC(=O)[C@H](Cc2ccccc2)NC(=O)[C@H](CCCNC(=N)N)NC1=O ({CH2CO}-[2Pal]LRFRPKDRGGC-NH2; thioether N-12)
- pIC50: 4.96

Compound: CC(C)C[C@@H]1NC(=O)[C@H](Cc2ccc(O)cc2)NC(=O)CSC[C@@H](C(N)=O)NC(=O)CNC(=O)CNC(=O)[C@H](CCCNC(=N)N)NC(=O)[C@H](CC(=O)O)NC(=O)[C@H](CCCCN)NC(=O)[C@@H]2CCCN2C(=O)[C@H](CCCCN)NC(=O)[C@H](Cc2ccccc2)NC(=O)[C@H](CCCNC(=N)N)NC1=O ({CH2CO}-YLRFKPKDRGGC-NH2; thioether N-12)
- pIC50: 7.19

Compound: CC(C)C[C@@H]1NC(=O)[C@H](Cc2ccc(O)cc2)NC(=O)CSC[C@@H](C(N)=O)NC(=O)CNC(=O)CNC(=O)[C@H](CCCNC(=N)N)NC(=O)[C@H](CC(=O)O)NC(=O)[C@H](CCCCN)NC(=O)[C@@H]2CCCN2C(=O)[C@H](CCCNC(=N)N)NC(=O)[C@H](Cc2ccncc2)NC(=O)[C@H](CCCNC(=N)N)NC1=O ({CH2CO}-YLR[4Pal]RPKDRGGC-NH2; thioether N-12)
- pIC50: 6.92

Compound: CC(C)C[C@@H]1NC(=O)[C@H](Cc2ccc(O)cc2)NC(=O)CSC[C@@H](C(N)=O)NC(=O)CNC(=O)CNC(=O)[C@H](CCCNC(=N)N)NC(=O)[C@H](CC(=O)O)NC(=O)[C@H](CCCCN)NC(=O)[C@@H]2CCCN2C(=O)[C@H](CCCNC(=N)N)NC(=O)[C@H](Cc2ccccc2C(F)(F)F)NC(=O)[C@H](CCCNC(=N)N)NC1=O ({CH2CO}-YLR[Phe(2-CF3)]RPKDRGGC-NH2; thioether N-12)
- pIC50: 7.38

Compound: CC(C)C[C@@H]1NC(=O)[C@H](Cc2ccc(O)cc2)NC(=O)CSC[C@@H](C(N)=O)NC(=O)CNC(=O)CNC(=O)[C@H](CCC(N)=O)NC(=O)[C@H](C)NC(=O)[C@H]([C@@H](C)O)NC(=O)[C@@H]2CCCN2C(=O)[C@H](CCCCN)NC(=O)[C@H](CC(C)C)NC(=O)[C@H](CCCNC(=N)N)NC1=O ({CH2CO}-YLRLKPTAQGGC-NH2; thioether N-12)
- pIC50: 6.23

Compound: CC(C)C[C@@H]1NC(=O)[C@H](Cc2ccc(O)cc2)NC(=O)CSC[C@@H](C(N)=O)NC(=O)CNC(=O)CNC(=O)[C@H](CCCNC(=N)N)NC(=O)[C@H](CC(=O)O)NC(=O)[C@H](CCCCN)NC(=O)[C@@H]2CCCN2C(=O)[C@H](CCCNC(=N)N)NC(=O)[C@H](Cc2ccccc2)NC(=O)[C@H](CCNC(=N)N)NC1=O ({CH2CO}-YL[Agb]FRPKDRGGC-NH2; thioether N-12)
- pIC50: 6.23

Compound: CC(C)C[C@@H]1NC(=O)[C@H](Cc2ccc(O)cc2)NC(=O)CSC[C@@H](C(N)=O)NC(=O)CNC(=O)CNC(=O)[C@H](C)NC(=O)[C@H](CC(=O)O)NC(=O)[C@H](CCCCN)NC(=O)[C@@H]2CCCN2C(=O)[C@H](CCCNC(=N)N)NC(=O)[C@H](Cc2ccccc2)NC(=O)[C@H](CCCNC(=N)N)NC1=O ({CH2CO}-YLRFRPKDAGGC-NH2; thioether N-12)
- pIC50: 6.19

Compound: CC(C)C[C@@H]1NC(=O)[C@H](Cc2ccc(O)cc2)NC(=O)CSC[C@@H](C(N)=O)NC(=O)CNC(=O)CNC(=O)[C@H](CCCNC(=N)N)NC(=O)[C@H](CC(=O)O)NC(=O)[C@H](CCCCN)NC(=O)[C@@H]2CCCN2C(=O)[C@H](CCCNC(=N)N)NC(=O)[C@H](Cc2ccc(O)cc2)NC(=O)[C@H](CCCNC(=N)N)NC1=O ({CH2CO}-YLRYRPKDRGGC-NH2; thioether N-12)
- pIC50: 6.59

Compound: CC(C)C[C@@H]1NC(=O)[C@H](Cc2ccc(C(F)(F)F)cc2)NC(=O)CSC[C@@H](C(N)=O)NC(=O)CNC(=O)CNC(=O)[C@H](CCCNC(=N)N)NC(=O)[C@H](CC(=O)O)NC(=O)[C@H](CCCCN)NC(=O)[C@@H]2CCCN2C(=O)[C@H](CCCNC(=N)N)NC(=O)[C@H](Cc2ccccc2)NC(=O)[C@H](CCCNC(=N)N)NC1=O ({CH2CO}-[Phe(4-CF3)]LRFRPKDRGGC-NH2; thioether N-12)
- pIC50: 4.13

Compound: CC(C)C[C@@H]1NC(=O)[C@H](Cc2cccc(C(F)(F)F)c2)NC(=O)CSC[C@@H](C(N)=O)NC(=O)CNC(=O)CNC(=O)[C@H](CCCNC(=N)N)NC(=O)[C@H](CC(=O)O)NC(=O)[C@H](CCCCN)NC(=O)[C@@H]2CCCN2C(=O)[C@H](CCCNC(=N)N)NC(=O)[C@H](Cc2ccccc2)NC(=O)[C@H](CCCNC(=N)N)NC1=O ({CH2CO}-[Phe(3-CF3)]LRFRPKDRGGC-NH2; thioether N-12)
- pIC50: 4.08

Compound: CC(C)C[C@@H]1NC(=O)[C@H](Cc2ccc(O)cc2)NC(=O)CSC[C@@H](C(N)=O)NC(=O)CNC(=O)CNC(=O)[C@H](CCCNC(=N)N)NC(=O)[C@H](CC(=O)O)NC(=O)[C@H](CCCCN)NC(=O)[C@@H]2CCCN2C(=O)[C@H](CCCNC(=N)N)NC(=O)[C@H](CC2CCCCC2)NC(=O)[C@H](CCCNC(=N)N)NC1=O ({CH2CO}-YLR[Cha]RPKDRGGC-NH2; thioether N-12)
- pIC50: 7.28

Compound: CC(C)C[C@@H]1NC(=O)[C@H](Cc2ccc(O)cc2)NC(=O)CSC[C@@H](C(N)=O)NC(=O)CNC(=O)CNC(=O)[C@H](CCC(N)=O)NC(=O)[C@H](CC(N)=O)NC(=O)[C@H]([C@@H](C)O)NC(=O)[C@H](C)NC(=O)[C@H](CCCCN)NC(=O)[C@H](CC(C)C)NC(=O)[C@H](CCCNC(=N)N)NC1=O ({CH2CO}-YLRLKATNQGGC-NH2; thioether N-12)
- pIC50: 5.64

Compound: CC(C)C[C@@H]1NC(=O)[C@H](Cc2ccc(O)cc2)NC(=O)CSC[C@@H](C(N)=O)NC(=O)[C@H](CCCNC(=N)N)NC(=O)[C@H](Cc2ccccc2)NC(=O)[C@H](CCCNC(=N)N)NC1=O ({CH2CO}-YLRFRC-NH2; thioether N-6)
- pIC50: 3.70
